Reference: patent publication US20230271950A1, “ANTIBACTERIAL PICOLINAMIDE COMPOUNDS” (University of Notre Dame Du Lac, priority 2020, published 2023)
Converted amounts (≈) assume the structure as drawn. Like-named read-outs stand apart in the source and are kept apart here.

Legend:
C. difficile = assay: MIC by broth microdilution against C. difficile strains; assay type: cell-based, Clostridioides difficile; settings: for MIC: Clostridioides difficile, read-out: MIC
MRSA (NRS70, NRS119) = assay: MIC against MRSA strains; assay type: cell-based, Staphylococcus aureus; settings: Staphylococcus aureus, MRSA NRS70; Table 7; read-out: MIC
S. aureus ATCC29213 = assay: MIC against MSSA; assay type: cell-based, Staphylococcus aureus; settings: Staphylococcus aureus; MSSA ATCC 29213; Table 10, unit inferred; read-out: Activity (MIC) against S. aureus
E. faecium NCTC7171 = assay: MIC against E. faecium; assay type: cell-based, Enterococcus faecium; settings: Enterococcus faecium, NCTC7171; E. faecium NCTC 7171; Table 10, unit inferred; read-out: Activity (MIC) against E. faecium
Bacteroides fragilis = assay: MIC against gut bacterium Bacteroides fragilis; assay type: cell-based; settings: Bacteroides fragilis, Bacteroides fragilis strain HM-709; Table 7; read-out: MIC
Bifidobacterium longum = assay: MIC against gut bacterium Bifidobacterium longum; assay type: cell-based; settings: Bifidobacterium longum, Bifidobacterium longum strain HM-846; Table 7; read-out: MIC
Corynebacterium spp. = assay: MIC against gut bacterium Corynebacterium spp.; assay type: cell-based; settings: Corynebacterium, Corynebacterium spp. strain HM-784; Table 7
Fusobacterium nucleatum = assay: MIC against gut bacterium Fusobacterium nucleatum; assay type: cell-based; settings: Fusobacterium nucleatum, Fusobacterium nucleatum strain HM-992; Table 7; read-out: MIC
Lactobacillus reuteri = assay: MIC against gut bacterium Lactobacillus reuteri; assay type: cell-based; settings: Limosilactobacillus reuteri; Lactobacillus reuteri strain HM-102; Table 7; read-out: MIC
Lactobacillus gasseri = assay: MIC against gut bacterium Lactobacillus gasseri; assay type: cell-based; settings: Lactobacillus gasseri strain HM-644; Table 7; read-out: MIC
Veillonella sp. HM-49 = assay: MIC against gut bacterium Veillonella sp.; assay type: cell-based; settings: SP.HM49; Veillonella sp. strain HM-49; Table 7; read-out: MIC
Eubacterium sp. = assay: MIC against gut bacterium Eubacterium sp.; assay type: cell-based; settings: Eubacterium, Eubacterium sp. strain HM-178; Table 7; read-out: MIC

In the case of O=C(Nc1ncco1)c1cc(Oc2cccc(OC(F)(F)F)c2)ccn1 [Compound 108, N-(Oxazol-2-yl)-4-(3-(trifluoromethoxy)phenoxy)picolinamide], the MIC (C. difficile; ATCC43255, C. difficile ATCC43255, Table 7) is reported as 1 µg/mL (≈ 2.74 µM), the MIC (C. difficile; ATCC43598, C. difficile ATCC43598, Table 7) is reported as 0.5 µg/mL (≈ 1.37 µM) and the MIC (C. difficile; BAA1801, C. difficile BAA-1801, Table 7) is reported as 0.25 µg/mL (≈ 0.684 µM). For the same compound, the MIC (C. difficile; BAA1803, C. difficile BAA-1803, Table 7) was 0.5 µg/mL (≈ 1.37 µM), the MIC (C. difficile; BAA1804, C. difficile BAA-1804, Table 7) was 0.25 µg/mL (≈ 0.684 µM) and the MIC (C. difficile; BAA1812, C. difficile BAA-1812, Table 7) was 1 µg/mL (≈ 2.74 µM). For the same compound, the MIC (C. difficile; BAA1814, C. difficile BAA-1814, Table 7) was 0.25 µg/mL (≈ 0.684 µM), the MIC (C. difficile; BAA1870, C. difficile BAA-1870, Table 7) was 0.5 µg/mL (≈ 1.37 µM) and the MIC (C. difficile; C. difficile 23691 (VR, vancomycin-resistant), Table 7) was 0.25 µg/mL (≈ 0.684 µM). The MIC (C. difficile; C. difficile 23828 (FR, fidaxomicin-resistant), Table 7) was 1 µg/mL (≈ 2.74 µM), the MIC (C. difficile; C. difficile 24531 (VR, vancomycin-resistant), Table 7) was 0.25 µg/mL (≈ 0.684 µM) and the MIC (C. difficile; C. difficile 24923 (VR, vancomycin-resistant), Table 7) was 0.25 µg/mL (≈ 0.684 µM). For the same compound, the MIC (C. difficile; C. difficile 26675 (MR, metronidazole-resistant), Table 7) was 1 µg/mL (≈ 2.74 µM), the MIC (C. difficile; C. difficile 27081 (FR, fidaxomicin-resistant), Table 7) was 0.25 µg/mL (≈ 0.684 µM) and the MIC (C. difficile; C. difficile 27173 (MR, metronidazole-resistant), Table 7) was 0.5 µg/mL (≈ 1.37 µM). It also gave an MIC (C. difficile; C. difficile NR49292, Table 7) of 0.25 µg/mL (≈ 0.684 µM), an MIC (C. difficile; C. difficile NR49294, Table 7) of 0.25 µg/mL (≈ 0.684 µM) and an MIC (C. difficile; C. difficile NR49302, Table 7) of 1 µg/mL (≈ 2.74 µM). It also gave an MIC (C. difficile; C. difficile NR49305, Table 7) of 0.25 µg/mL (≈ 0.684 µM), an MIC (C. difficile; C. difficile NR49310, Table 7) of 0.5 µg/mL (≈ 1.37 µM) and an MIC (C. difficile; C. difficile NR49318, Table 7) of 0.5 µg/mL (≈ 1.37 µM). For the same compound, the MIC (C. difficile; C. difficile, Table 8) was 1 µg/mL (≈ 2.74 µM), the Selectivity (C. difficile; MIC MRSA NRS70/MIC C. difficile ATCC43255, Table 7) was 64 and the Selectivity (C. difficile; Table 8) was 64. For the same compound, the MIC (MRSA (NRS70, NRS119)) was 64 µg/mL (≈ 175 µM), the MIC (S. aureus ATCC29213) was 64 µg/mL (≈ 175 µM) and the MIC (E. faecium NCTC7171) was 64 µg/mL (≈ 175 µM). The MIC (Bacteroides fragilis) was 8 µg/mL (≈ 21.9 µM), the MIC (Bifidobacterium longum) was 16 µg/mL (≈ 43.8 µM) and the MIC (Corynebacterium spp.) was over 16 µg/mL. For the same compound, the MIC (Fusobacterium nucleatum) was 8 µg/mL (≈ 21.9 µM), the MIC (Lactobacillus reuteri) was 4 µg/mL (≈ 11 µM) and the MIC (Lactobacillus gasseri) was over 16 µg/mL. The MIC (Veillonella sp. HM-49) was 16 µg/mL (≈ 43.8 µM) and the MIC (Eubacterium sp.) was 8 µg/mL (≈ 21.9 µM).
